{"source": "patent EP4778516A1", "about": "“CALCIFICATION ENHANCER FOR OSTEOBLAST MC3T3-E1 CELL” (Watanabe Oyster Laboratory Co., Ltd., priority 2023, dated 2025)", "key": {"MC3T3-E1 cells [1]": {"test_system": "MC3T3-E1 cells", "experiment": "Crosstalk (Transwell co-culture) between MC3T3-E1 cells and RAW264.7 cells", "type": "cell-based, mouse", "conditions": "DHMBA 1 or 10 mM", "procedure": "To investigate crosstalk between osteoblast MC3T3-E1 cells and macrophage RAW264.7 cells, an assay was performed using Transwell chambers (Corning Inc., Life Sciences, catalog no. CLS3464-48EA, USA) equipped with a polycarbonate filter (pore size […], diameter 6.5 mm). MC3T3-E1 cells (1×10^5 cells per 1 ml medium) were added in a-MEM medium (1 ml) containing 10% FBS and 1% P/S in the lower chamber. RAW264.7 cells were suspended in DMEM containing 10% FBS and 1% P/S, and 0.5 ml of the suspension (5×10^4 cells/ml medium) was added to the upper chamber of each Transwell. RAW264.7 cells were incubated at 37°C for 1 hour under 5% CO2 and 95% air to allow attachment to the upper chamber. The plates equipped with the Transwell chambers were then placed in an incubator at 37°C under 5% CO2 and 95% air. To induce inflammatory conditions in RAW264.7 cells, LPS (100 ng/ml medium) was added to the upper chamber containing RAW264.7 cells. […] MC3T3-E1 cells attached to the dishes (wells) were counted as described in the section \"Cell proliferation assay\". […]\nThereafter, a Transwell chamber was placed in each culture well, and RAW264.7 cells were added to the upper chamber at 0.5 ml (5×10^4 cells/ml medium), in the presence or absence of LPS (100 ng/ml medium). […] Cells attached to the dishes (wells) were counted as described in the section \"Cell proliferation assay\"."}, "MC3T3-E1 cells [2]": {"test_system": "MC3T3-E1 cells", "experiment": "Effects of conditioned medium of LPS-stimulated RAW264.7 cells on MC3T3-E1 cells", "type": "cell-based, mouse", "procedure": "A conditioned medium was obtained by culturing RAW264.7 cells.\nRAW264.7 cells (1×10^5 cells/ml per well in a 24-well plate) were cultured for 3 days after reaching subconfluence in DMEM containing 10% FBS and 1% P/S in the presence or absence of LPS (concentration in the medium: 100 ng/ml). After the cells were cultured, the medium (conditioned medium) was collected.\nTo evaluate the effects of the conditioned medium on proliferation of MC3T3-E1 cells, MC3T3-E1 cells were cultured for 3 days in a-MEM containing 10% FBS and 1% P/S. The cells were then cultured for 3 days using either the conditioned medium (1 ml, control) cultured without LPS or the conditioned medium (0.25 or 0.50 ml per well, adjusted to 1 ml with normal medium) cultured with LPS in the presence or absence of DHMBA (1 or 10 mM).\nFurther, to examine the effects on cell death of MC3T3-E1 cells, the cells (1×10^5 cells/ml per well) were cultured for 3 days in a-MEM containing 10% FBS and 1% P/S. After reaching subconfluence, the medium was replaced. The cells were then further cultured for 48 hours in either the normal medium, the conditioned medium (1 ml) cultured without LPS, or the conditioned medium (0.25 or 0.50 ml per well, adjusted to 1 ml with normal medium) with either a reagent vehicle (1% ethanol as final concentration) or DHMBA (1 or 10 mM). After culture, the cells were detached from each culture well, and cell numbers were counted in the same manner as described above.\nFurther, the effects of Bay 11-7082, which is an NF-kB signaling inhibitor, on proliferation or cell death of MC3T3-E1 cells were investigated. First, to examine the effects of Bay 11-7082 on proliferation of MC3T3-E1 cells, the cells (1×10^5 cells/1 ml per well in a 24-well plate) were cultured for 3 days until reaching subconfluence in the presence of 10% FBS, 1% P/S, and either a reagent vehicle (1% ethanol as final concentration) or Bay 11-7082 (1, 10, 50, 100, or 1000 nM). Next, MC3T3-E1 cells were cultured for 3 days in the presence of the conditioned medium (0.5 ml per well, adjusted to a total of 1 ml with normal medium) with or without Bay 11-7082 (1 or 10 nM) in the presence or absence of DHMBA (10 mM).\nIn another experiment, to evaluate the effects of Bay 11-7082 on cell death of MC3T3-E1, the cells (1×10^5 cells/1 ml per well in a 24-well plate) were cultured in a-MEM containing 10% FBS and 1% P/S. After culturing for 3 days until reaching subconfluence, the medium was replaced with a-MEM (1 ml) containing either the normal medium or the conditioned medium prepared by adding the normal medium to 0.5 ml per well of the conditioned medium, adjusted to a total volume of 1 ml. The cells were then further cultured for 48 hours in the presence of Bay 11-7082 (1 or 10 nM), or Bay 11-7082 (10 nM) in combination with DHMBA (10 mM). After culture, the cells were detached from each culture well, and cell numbers were counted as described above."}, "[3]": {"conditions": "cited from earlier work; for peroxyl radical scavenging activity relative to Trolox: greater than Trolox"}, "[4]": {"test_system": "bone-metastatic prostate cancer cells", "conditions": "earlier demonstration by the present inventors; cited from earlier work"}}, "note": "Read-outs that look alike come from different tables or passages of the source.", "data": [{"molecule": "COc1c(O)cc(CO)cc1O", "note": "[DHMBA, 3,5-dihydroxy-4-methoxybenzyl alcohol]", "values": [{"measurement": "decrease of proliferation of MC3T3-E1 cells by co-culture with RAW264.7 cells", "setting": "MC3T3-E1 cells [1]; LPS 100 ng/ml in upper chamber, 3 days, Fig. 5C", "result": "suppressed"}, {"measurement": "enhancement of death of MC3T3-E1 cells by co-culture with RAW264.7 cells", "setting": "MC3T3-E1 cells [1]; LPS 100 ng/ml, 48 hours, Fig. 5D", "result": "prevented"}, {"measurement": "suppressive effect of DHMBA on conditioned-medium-induced suppression of proliferation, in combination with Bay 11-7082", "setting": "MC3T3-E1 cells [2]; DHMBA in the presence of Bay 11-7082", "result": "not further enhanced"}, {"measurement": "enhancement of death of MC3T3-E1 cells by the conditioned medium", "setting": "MC3T3-E1 cells [2]; conditioned medium 0.5 ml, DHMBA 1 or 10 mM, 48 hours, Fig. 6B", "result": "suppressed"}, {"measurement": "inhibition of proliferation of MC3T3-E1 cells by the conditioned medium", "setting": "MC3T3-E1 cells [2]; conditioned medium with LPS stimulation, DHMBA 1 or 10 mM, 3 days, Fig. 6A", "result": "prevented"}, {"measurement": "reaction with HOO(•)", "setting": "[3]; compared with other known antioxidants such as resveratrol and ascorbic acid", "result": "more rapidly"}, {"measurement": "peroxyl radical scavenging activity relative to Trolox", "setting": "[3]; in aqueous media", "result": "four orders of magnitude"}, {"measurement": "peroxyl radical scavenging activity relative to Trolox", "setting": "[3]; in lipid media", "result": "approximately 15 fold"}, {"measurement": "metastatic activity of bone-metastatic prostate cancer cells", "setting": "[4]", "result": "suppressive effects"}, {"measurement": "proliferation of bone-metastatic prostate cancer cells", "setting": "[4]", "result": "suppressive effects"}]}]}
